Source: patent publication US20220133697A1, “INJECTABLE FORMULATIONS” (Aldeyra Therapeutics, Inc., priority 2018, published 2022)

What was measured:
[1] = system: endotoxin induced uveitis; assay: rat model of endotoxin induced uveitis, ocular exam scores; assay type: in vivo, female Lewis rats; conditions: for retina-choroid scores, within-subject statistical analysis (treatment and time): IVT treatment, compared to vehicle control
Method: (§1) An in vivo study was conducted to assess the efficacy of intravitreal administration of Compound I-5 and I-22 in a rat model of endotoxin induced uveitis, one of the most appropriate models for the study of non-infectious uveitis (NIU) (Smith et al., 1998, Immunol Cell Biol. 76(6):497-512) (Toxikon Study 16-04078-N1). Ocular inflammation was induced in female Lewis rats (n=10/group) by a single, foot pad injection of lipopolysaccharide (LPS) (100 μL) (Herbort et al., 1988, Graefes Arch Clin Exp Ophthalmol. 226(6):553-8). Compound I-5 or I-22 (50 μg) was topically administered (TO) to the eye at hours 1, 3, 7, 10, and 17, after LPS induction, or by a single intravitreal (IVT) injection (25 μg) 1 hour after LPS induction (n=10 per group). Ocular exams were performed six and 24 hours after LPS injection. Anterior segments were scored using a combined Draize and McDonald-Shattuck scoring system, and posterior segments were scored using 0 to 1 (vitreous, optic disc, retinal vasculature) and 0 to 4 (retinal and choroidal hemorrhage, exudation, and detachment) scales. Statistical significance from vehicle control was determined by ANOVA, followed by Tukey's post hoc test. The test compound, e.g., Compound I-22 (5 mg/mL), was administered intravitreally into each eye (25 μg/eye) within one hour of LPS administration. Balanced salt solution (BSS) served as a vehicle control. Retinal exams were performed prior to study start and six and 24 hours following LPS administration and scored using a Combined Draize and McDonald Shadduck scoring system, based on assessments of: (a) Retinal vasculopathy; (2) Retinal hemorrhage, exudate or detachment; and (3) Retinal hemorrhage, exudate or detachment.

MDA adducts = MDA adducts in the LPS-induced uveitis model; assay type: in vivo, female Lewis rats; conditions: after TO and IVT administration; data not shown
Method: as §1, with “Compound I-5 or I-22 (50 μg) was topically administered (TO) to the eye at hours 1, 3, 7, 10, and 17, after LPS induction, or by a single intravitreal (IVT) injection (25 μg) 1 hour after LPS induction (n=10 per group). Ocular exams were performed six and 24 hours after LPS injection.” left out, “The test compound, e.g., Compound I-22 (5 mg/mL), was administered intravitreally into each eye (25 μg/eye) within one hour of LPS administration. Balanced salt solution (BSS) served as a vehicle control.” left out

A2E = A2E formation in retinas of abcr-/- mouse knockout model of macular degeneration; assay type: in vivo, mice; conditions: 10 mg/kg intraperitoneally daily for 56 days, HPLC, compared with vehicle controls
Method: (§2) A mouse knockout model (abcr−/−) of macular degeneration (MD) was used to test the activities of Compound I-5 and Compound I-22. The retinal transport protein, ABCA4, is not expressed in these mice, allowing retinaldehdye to escape the light cycle and form a toxic metabolite with phosphatidylethanolamine, N-retinylidene-phosphatidylethanolamine (A2E). Mice were treated intraperitoneally (IP) for 56 days with 10 mg/kg Compound I-5 (n=24), Compound I-22 (n=24), or vehicle (n=22), starting at week 10 to 12 of life. An untreated control group (n=12) was sacrificed on the first day of dosing. After treatment, A2E concentrations in retinas were measured by HPLC. Statistical significance from vehicle control was determined by t-test.

[2] = body weight and adverse effects during 56 days daily treatment in the abcr-/- mouse study; assay type: in vivo, mice; conditions: daily treatment for 56 days
Method: as §2

diabetic macular edema = assay: rat model of diabetic macular edema (STZ-induced diabetes), retinal histology scores; assay type: in vivo
Method: To assess the effect of Compound I-22 in a rat model of diabetic macular edema (DME), Type 1 diabetes was induced in male brown Norway rats by intraperitoneal administration of streptozotocin (STZ; 55 mg/kg). Forty days after STZ administration, animals were tested for diabetes by testing blood glucose levels.
Animals with diabetes were assigned to groups of ten, to receive either vehicle (HPβCD) or Compound I-22. […] On Day 41 (about Week 6) after STZ induction, animals received a single intravitreal injection of Compound I-22 (3.5 μL; 17.5 μg) or vehicle per eye. On Day 57 (about Week 8) after STZ induction, animals received a second intravitreal injection of Compound I-22 or vehicle.
On Day 70 (about Week 10) after STZ induction, animals were euthanized and retinas were processed for histological examination. Sections (3 to 5 μm) were stained with hematoxylin and eosin and evaluated by light microscopy. Changes in retinal thickness were scored on a 0 to 4 scale, with 0 meaning no changes, 1 meaning minimal changes, 2 meaning mild changes, 3 meaning moderate changes, and 4 meaning severe changes, relative to non-diabetic controls. Six microscopic sections were examined for each eye, and retinas were also assessed and scored by a pathologist for changes in vascularity and neutrophil infiltration.

[3] = dark adaptation, separate study; assay type: in vivo; conditions: systemic (IP) doses 5-fold greater than the effective dose in the A2E study, 56 days; data not shown
[4] = single intravitreal (IVT) injection 25 μg 1 hour after LPS, vs. vehicle
[5] = topical (TO) 50 μg at hours 1, 3, 7, 10, 17 after LPS, at 6 hours and 24 hours, compared to vehicle

| effect on dark adaptation [3] | SMILES | retina-choroid scores, within-subject statistical analysis (treatment and time) [1] | ocular exam scores (total ocular, anterior chamber and retina-choroid inflammation) [1, 4] | ocular exam scores (total ocular, anterior chamber and retina-choroid inflammation) [1, 5] | MDA adducts (MDA adducts) | decrease in formation of A2E (A2E) [%] | drug-related adverse effects [2] | effect on body weight [2] | reduction in retinal vascularity compared to vehicle, statistical significance (diabetic macular edema; intravitreal 17.5 μg per eye on Day 41 and Day 57 after STZ, FIG. 10) | neutrophil infiltration (score 0 to 4) (diabetic macular edema; intravitreal 17.5 μg per eye on Day 41 and Day 57 after STZ, compared to vehicle, p<0.01) | decrease in retinal vascularity score (diabetic macular edema; intravitreal 17.5 μg per eye on Day 41 and Day 57 after STZ, compared to vehicle, p<0.05) [%] | retinal thickness (score 0 to 4) (diabetic macular edema; intravitreal 17.5 μg per eye on Day 41 and Day 57 after STZ, histology Day 70, p<0.01) | tolerability in the retina (diabetic macular edema; intravitreal injection, rat DME model) | retinal inflammation (diabetic macular edema; measured by retinal thickness, neutrophil infiltration and retinal vascular changes) |
| --- | --- | --- | --- | --- | --- | --- | --- | --- | --- | --- | --- | --- | --- | --- |
|  | CC(C)(O)c1cc2oc(-c3ccccc3)nc2cc1N [Compound I-22] | significantly improved | significantly improved | significantly improved | Small, although not significant, reductions | 69 | nor were any drug-related adverse effects observed | no effect | not statistically significant | significant reduction | 36 | significant reduction | well tolerated | decreased |
| no effect | CC(C)(O)c1nc2ccc(Cl)cc2cc1N [Compound I-5] | significantly improved | significantly improved | significantly improved | Small, although not significant, reductions | 71 | nor were any drug-related adverse effects observed | no effect |  |  |  |  |  |  |
